Converted amounts (≈) assume the structure as drawn. Counter-ions that a name gives are not always drawn. Like-named read-outs stand apart in the source and are kept apart here.
Legend:
[1] = system: Staphylococcus aureus A321; assay: MIC, agar serial dilution test; assay type: cell-based; details: Staphylococcus aureus A321; 24 hours at 37° C; read-out: MIC
[2] = system: Salmonella typhi murium R 172; assay: in vivo infection test in mice; details: Salmonella enterica, in Mus musculus
[3] = system: Pasteurella multocida A723; assay: MIC, agar serial dilution test; assay type: cell-based; details: Pasteurella multocida A723; 24 hours at 37° C; read-out: MIC
[4] = system: Streptococcus faecalis L 80; assay: MIC, agar serial dilution test; assay type: cell-based; details: Enterococcus faecalis
[5] = system: Staphylococcus aureus A55; assay: MIC, agar serial dilution test; assay type: cell-based; details: Staphylococcus aureus A55; 24 hours at 37° C; read-out: MIC
[6] = system: Diplococcus pneumoniae L 54; assay: MIC, agar serial dilution test; assay type: cell-based; details: Streptococcus pneumoniae, L54; Diplococcus pneumoniae L 54; 24 hours at 37° C; read-out: MIC
[7] = system: Staphylococcus aureus L160a (penicillinase-producing); assay: MIC, agar serial dilution test; details: 24 h
[8] = system: Bacillus subtilis ATCC 6633; assay: MIC, agar serial dilution test; assay type: cell-based; details: ATCC6633; Bacillus subtilis ATCC 6633; 24 hours at 37° C; read-out: MIC
[9] = system: Staphylococcus aureus A 2001; assay: in vivo infection test in mice; details: A2001, in Mus musculus
[10] = system: Streptococcus haemolyticus A266; assay: MIC, agar serial dilution test; assay type: cell-based; details: Streptococcus haemolyticus A266; 24 hours at 37° C; read-out: MIC
Brucella melitensis A488 = assay: microbe, parasite or virus in culture; assay type: cell-based; details: A488, 24 h
[11] = system: Staphylococcus aureus A355 (penicillinase-producing); assay: MIC, agar serial dilution test; details: 24 h
[12] = system: Staphylococcus aureus A 321; assay: in vivo infection test in mice; details: A321, in Mus musculus
[13] = system: Klebsiella pneumoniae A809; assay: MIC, agar serial dilution test; assay type: cell-based; details: Klebsiella pneumoniae A809; 24 hours at 37° C; read-out: MIC
Proteus mirabilis O.T. = assay: in vivo infection test in mice; details: in Mus musculus
[14] = system: Pseudomonas aeruginosa A 1058; assay: in vivo infection test in mice; details: A1058, in Mus musculus
[15] = system: Staphylococcus aureus A 2000; assay: in vivo infection test in mice; details: A2000, in Mus musculus
[16] = percentages of bound serum by ultrafiltration and dialysis; assay type: in vitro ADME; details: read-out: percentage of bound serum (converted)
Escherichia coli 65161 = assay: protection test in mice, Escherichia coli; assay type: in vivo, female mice (Swiss SPF)
[17] = system: Staphylococcus aureus A 2001; assay: protection test in mice, Staphylococcus aureus
[18] = blood (serum) contents after intramuscular administration in rabbits; assay type: in vivo, rabbits (Nieuw Zeelander); details: rabbit, im, 50 mg/kg intramuscular, average, read-out: Serum level
Protocol: (§1) c. […] The rabbits were provided with "Cunicon" and water ad libitum. Each test group consisted of 3 rabbits. The dose was 50 mg/kg using water as the vehicle. […] The contents of the compound in the samples were determined microbiologically (only microbiologically detected amounts, i.e. anti-bacterially active concentrations only have been indicated).

[19] = secretion of compound in urine after intramuscular administration in rabbits; assay type: in vivo, rabbits (Nieuw Zeelander); details: rabbit, im, 50 mg/kg intramuscular, average, read-out: Secretion of compound in urine in % of the administered dose
Protocol: as §1

in vivo = details: mouse, ip
[20] = L80, Streptococcus faecalis L 80, 24 hours at 37° C, read-out: MIC

Structure (SMILES)	MIC [1] [µg/mL]	ED50 ([2]; ip) [mg/kg]	MIC [3] [µg/mL]	MIC [4, 20] [µg/mL]	MIC [5] [µg/mL]	MIC [6] [µg/mL]	MIC [7] [µg/mL]	MIC [8] [µg/mL]	ED50 ([9]; ip) [mg/kg]	ED50 ([9]; po) [mg/kg]	ED50 ([9]; sc) [mg/kg]	MIC [10] [µg/mL]	MIC (Brucella melitensis A488) [µg/mL]	MIC [11] [µg/mL]	ED50 ([12]; ip) [mg/kg]	ED50 ([12]; po) [mg/kg]	ED50 ([12]; sc) [mg/kg]	MIC [13] [µg/mL]	ED50 (Proteus mirabilis O.T.; ip) [mg/kg]	ED50 (Proteus mirabilis O.T.; po) [mg/kg]	other results
CC(=O)OCC1=C(C(=O)O)N2C(=O)C(NC(=O)Cc3cc(-c4c(C)cc(C)cc4C)no3)C2SC1 (stereo not drawn) [VII, Sodium salt of 7-{[3-(2,4,6-trimethyl)phenylisoxazol-5-yl]acetamido}cephalosporanic acid]	0.06	> 215	50	1	0.06	0.03	0.12	0.015	17.1	> 215	140	0.03	12.5	0.25	3.8	70	18.5	50	> 215	~215	ED50 ([2]; po): > 215 mg/kg; ED50 ([14]; ip): > 215 mg/kg; ED50 ([14]; po): > 215 mg/kg
CCC(Oc1ccccc1)C(=O)N[C@@H]1C(=O)N2[C@@H]1SC(C)(C)[C@@H]2C(=O)O (stereo partly drawn) [Propicillin, reference compound]									133	> 215	> 215					10.8	2.33				ED50 ([15]; ip): 88 mg/kg; ED50 ([15]; po): > 215 mg/kg; ED50 ([15]; sc): > 215 mg/kg
CC1=C(C(=O)O)N2C(=O)C(NC(=O)Cc3cc(-c4c(Cl)cccc4Cl)no3)C2SC1 (stereo not drawn) [Example IV, Sodium salt of 7{[3-(2,6-dichlorophenyl)isoxazol-5-yl]acetamido}desacetoxycephalosporanicacid]	0.5	> 215	6		0.75	0.75	1.5	1	23.3	~200	> 215	0.5	12.5	3	23.3	50.1	31.6	> 100	> 215		MIC ([4]; L80, 24 h): 12.5 µg/mL; ED50 ([15]; ip): 19.6 mg/kg; ED50 ([15]; po): > 215 mg/kg; ED50 ([15]; sc): > 215 mg/kg; ED50 ([14]; ip): > 215 mg/kg
Cc1cc(C)c(-c2cc(C(C)C(=O)NC3C(=O)N4C3SC(C)(C)C4C(=O)O)on2)c(C)c1 (stereo not drawn) [Example XI, Cyclohexylamine salt of 6{α-methyl-[3-(2,4,6-trimethyl)phenylisoxazol-5-yl]acetamido}penicillanic acid]	0.06		50	1.5	0.12	0.12	12.5	0.06				0.007	3	12.5	> 21.5	> 100		100	> 300	> 300	ED50 ([14]; po): > 300 mg/kg
CC1(C)S[C@@H]2C(NC(=O)Cc3onc(-c4c(Cl)cccc4Cl)c3C(=O)O)C(=O)N2[C@H]1C(=O)O (stereo partly drawn) [Example V, 6-{[3-(2,6-dichlorophenyl)-4-carboxyisoxazol-5-yl]acetamido}penicillanic acid]	1 (≈ 1.94 µM)		1.5 (≈ 2.92 µM)	25 (≈ 48.6 µM)	1 (≈ 1.94 µM)	6 (≈ 11.7 µM)	3 (≈ 5.83 µM)	0.5 (≈ 0.972 µM)				0.5 (≈ 0.972 µM)	25 (≈ 48.6 µM)	12.5 (≈ 24.3 µM)	< 100	> 215		> 100	> 300	> 300	
Cc1cc(C)c(-c2cc(C(Cl)C(=O)NC3C(=O)N4C3SC(C)(C)C4C(=O)O)on2)c(C)c1 (stereo not drawn) [Example IX, Cyclohexylamine salt of 6-{α-chloro-[3-(2,4,6-trimethyl)phenyl-isoxazol-5-yl]acetamido}penicillanic acid]	0.25		25	1.5	0.25	0.12	25	0.12				0.06	25	25	> 21.5	> 100		> 100			
CC1(C)SC2C(NC(=O)Cc3cc(-c4c(Cl)cccc4Cl)no3)C(=O)N2C1C(=O)O (stereo not drawn) [Example I, Sodium salt of 6-{[3-(2,6-dichlorophenyl)isoxazol-5-yl]acetamido}-penicillanic acid]	0.015	> 215	2	50	0.01	0.25	1	0.007	> 215	> 215	> 215	0.007	0.5	3	10.8	126	36.9	100			ED50 ([15]; ip): 133 mg/kg; ED50 ([15]; po): > 215 mg/kg; ED50 ([15]; sc): > 215 mg/kg; ED50 ([14]; ip): > 215 mg/kg
CC(=O)OCC1=C(C(=O)O)N2C(=O)C(NC(=O)Cc3cc(C)no3)C2SC1 (stereo not drawn) [Example XXII, 7-{[3-methyl-isoxazol-5-yl]acetamido}cephalosporanic acid]	0.5 (≈ 1.26 µM)		3 (≈ 7.59 µM)	25 (≈ 63.2 µM)	0.5 (≈ 1.26 µM)	0.5 (≈ 1.26 µM)	1 (≈ 2.53 µM)	0.06 (≈ 0.152 µM)				0.12 (≈ 0.303 µM)	12.5 (≈ 31.6 µM)	1 (≈ 2.53 µM)				3 (≈ 7.59 µM)			fraction unbound ([16]; dialysis): 0.72; fraction unbound ([16]; ultrafiltration): 0.67; ED50 (Escherichia coli 65161; ip, 168 h, Escherichia coli 65161 i.p., method of administration intraperitoneal): 100 mg/kg; Potency Ratio (Escherichia coli 65161; vs Cephalotin, E. coli 65161, intraperitoneal, limits (0.52-2.53) printed): 1.15; ED50 ([17]; Staphylococcus aureus, A2001, in Mus musculus, sc, 168 h): 23 mg/kg; Potency Ratio ([17]; vs Cephalotin, S. aureus A 2001, subcutaneously, limits (0.73-4.92) printed): 1.90; concentration at 0.5 h ([18]; after 1/2 hr.): 45000 ng/mL; concentration at 0.25 h ([18]; after 1/4 hr.): 57500 ng/mL; concentration at 1 h ([18]; after 1 hr.): 12300 ng/mL; concentration at 2 h ([18]; after 2 hrs.): 1700 ng/mL; concentration at 4 h ([18]; after 4 hrs.): < 1000 ng/mL; dose excreted at 6 h ([19]; after 6 hrs.): 41.4%; dose excreted at 27 h ([19]; after 27 hrs.): 46.9%; LD50 (in vivo): > 8000 mg/kg
CCOc1ccc2ccccc2c1C(=O)N[C@@H]1C(=O)N2[C@@H]1SC(C)(C)[C@@H]2C(=O)O [Nafcilline, Nafcillin, reference compound]	0.25 (≈ 0.603 µM)		12.5 (≈ 30.2 µM)	10 (≈ 24.1 µM)	0.12 (≈ 0.29 µM)	0.06 (≈ 0.145 µM)	0.5 (≈ 1.21 µM)	0.5 (≈ 1.21 µM)				0.015 (≈ 0.0362 µM)	6 (≈ 14.5 µM)	1 (≈ 2.41 µM)				12.5 (≈ 30.2 µM)			
